Here are results for 2 substances from patent US12590130B2, “Bipartite molecules and uses thereof in treating diseases associated with abnormal protein aggregates” (ACADEMIA SINICA, priority 2014, dated 2026).

For data set [1], the system named is APP×PS1 transgenic mice. Put plainly: Cytometric bead array for IL-6 and IL-1β in brain of APP×PS1 mice. The format is in vivo, mouse. Conditions: cortex, 8 month-old Tg mice. Here is the method:
(§1) APP×PS1 transgenic mice (B6C3-Tg (APPswe,PSEN1dE9) 85Dbo/Mmjax, purchased from Jackson Laboratories (USA), were bred and genotyped following the vendor's protocols. Borchelt et al., Neuron (1996) 17:1005-13; and Jankowsky et al., Biomol Eng (2001) 17:157-65. The mice had access to food and water ad libitum and were kept on a 12:12 h light-dark cycle. PEI and R8A β 25-35-PEI were dissolved in 100 mM NaH2PO4/138 mM KCl (pH 5) to a final concentration of 400 μM. For intranasal administration, 2.5 μL PEI or R8-A β (25-35)-PEI was given to each nostril of one mouse when they were […] for six days/week until they were 8 months of age. Mice were then tested with a Morris water maze. Treatment were resumed after a 6-week break for the water maze test, and continued until the mice were 12 months of age.
A cytometric bead array (CBA, mouse inflammation kit; BD Biosciences) was used to quantitatively measure cytokine expression levels in the control and treated mouse brain tissue lysates. […] This method quantifies soluble particles, in this case, cytokines, using a fluorescence-based detection mechanism. The beads, coated with the desired cytokine, IL-6 and IL-1B, reacted with the test lysates and standards, to which fluorescence dyes were then added. The assay was performed according to the manufacturer's instructions and analyzed on the FACS Calibur (Becton Dickinson). […]

Data set [2] concerns APP×PS1 transgenic mice. The data set is described as follows: Thioflavin S staining of amyloid plaques in APP×PS1 mice. The format is in vivo, mouse. Conditions: vs PEI.
Data set [3] deals with APP×PS1 transgenic mice. Put plainly: Morris water maze in APP×PS1 transgenic mice. Conditions: vs PEI. Type of data set: in vivo, mouse.
Description: FIG. 12. R8-Aβ(25-35)-PEI improved memory as measured by the Morris water maze assay. Panel A: Plot of the escape latency period of wild type (WT) and APP×PS1 transgenic (Tg) mice of 8 months of age treated with either PEI or R8-Aβ(25-35) peptide from the age of 4 months to 8 months. […] Panel B: Percentage of time of WT or Tg mice treated as indicated spent in swimming in the target quadrant where the hidden platform used to be. The times of the indicated mice crossing the target quadrant. […] Panel C: The percentage of time of the WT or Tg mice as indicated crossing the target quadrant. Ten mice per group were used in this study. The statistics were performed with two way ANOVA with Fisher's LSD posthoc analysis. N=10/group *<0.05; ***<0.0005; ****<0.0001
as §1
The maze was made of white opaque plastic with a diameter of 120 cm and contained 40 cm high walls. It was filled with milk/water at 25° C. […] The path length and escape latencies were recorded (n=10 per group). Acquisition data, such as time taken to reach the escape platform and path length were analyzed by two-way repeated measures ANOVA. […] The platform was removed from the maze and animals were allowed to swim freely for 90 s and the swimming path was recorded and analyzed.

Data set [4] is described as follows: Solubility of therapeutic peptides. Type of data set: physicochemical. Conditions: DMEM/10% FBS. Here is the method:
In this study, the rational design was tested for HD. Several bipartite therapeutic peptides containing 8 consecutive arginines (8R) attached to a stretch of consecutive glutamines (polyQ) were synthesized and their biological activity of decreasing the aggregation propensity of the mHtt protein was investigated. The length of the polyQ of these bipartite peptides was 5 (8R5Q), 10 (8R10Q), 15 (8R15Q) or 20 (8R20Q) (Table 2).

Data set [5] deals with 109QmHtt aggregates. The data set is described as follows: Co-localization of TAMRA-labeled peptide with 109QmHtt aggregates in Neuro2a cells. Conditions: Neuro2a cells expressing 109QmHtt. Type of data set: cell-based. How it is done: FIG. 3. Diagrams showing the co-localization of tested bipartite peptides with the 109QmHtt aggregates. Panel A: Structure of TAMRA-labeled 8R10Q used in this study. Panel B: Epifluorescence micrographs of Neuro2a cells expressing 109QmHtt treated with TAMRA-8R10Q (8R10Q) at various time points. Note the co-localization of 8R10Q and 109QmHttGFP aggregates (GFP) from 8-24 hours (arrows). Scale bar: 10 μm. Panel C: TIRF micrographs of the Neuro2a expressing 109QmHtt treated with water or peptides as indicated at various time points. Note the decrease in aggregate size in 8R10Q and 8R15Q-treated cells. Panel D: Quantitation of the size of individual aggregates in Neuro2a at 8 hours (left) and 24 hours (right) after peptide treatment. […] Panel E: Quantitation of the number of aggregates in 20 Neuro2a cells at 12 hours (left) and 24 hours (right) after peptide treatment. Both the 8R10Q and 8R15Q increased the number of aggregates. Statistics performed with one way ANOVA. **p<0.01; ***p<0.001.
The ability of 8R10Q to bind to the 109QmHtt was examined by determining its co-localization with the 109QmHtt aggregates. The 8R10Q peptide was labeled with carboxytetramethylrhodamine (TAMRA) dye (FIG. 3, panel A), and added into Neuro2a cells expressing 25QHtt or 109QmHtt.

Sequence of 109QmHtt aggregates (P42858 with tags, fused parts or gaps limits assumed): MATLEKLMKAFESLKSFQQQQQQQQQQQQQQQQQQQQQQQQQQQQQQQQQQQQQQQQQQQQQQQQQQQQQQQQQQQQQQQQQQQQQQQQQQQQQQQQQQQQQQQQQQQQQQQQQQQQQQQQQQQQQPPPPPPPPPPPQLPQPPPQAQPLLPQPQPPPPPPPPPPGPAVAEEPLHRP

In the case of “RRRRRRRRGSNKGAIIGLM-PEI (not fully specified; PEI conjugate) [R8-Aβ(25-35)-PEI]”, in data set [1], the “level of IL-1β” value is reported as “effectively decreased” and the “level of IL-6” value is listed as “effectively decreased”. Moreover, in data set [2] (cortex and hippocampus, 8 month-old), the number of plaques entry was “significantly reduced”. In data set [2] (cortex and hippocampus), the “percentage of the plaque areas” value was “significantly decreased” and the “total area of amyloid plaques” value is recorded as “correspondingly decreased”. Further, the “average size of individual plaques” value in data set [2] is reported as “failed to reach statistical significance”. For the same substance, the “escape latency / learning to find hidden platform” value in data set [3] (Tg mice 8 months of age, intranasal) was “significant shortening of the latency”. In addition, the “time spent in the target quadrant (probe test)” value in data set [3] (Tg mice) is “increased the time of Tg mice in the target quadrant”. Moreover, the “learning curve of finding the hidden platform” value in data set [3] (wild-type mice) is reported as “no clear difference in the learning curve”.

For “TAMRA-NH-(R)8-W-D-(Q)10-CONH2 ({TAMRA}-RRRRRRRRWDQQQQQQQQQQ-NH2) [TAMRA-8R10Q]”, in data set [4], the “Solubility (DMEM/10% FBS)” value is “Soluble”. In addition, in data set [5], the “co-localization with 109QmHtt aggregates” value was “co-localized with the aggregates”.
